What was measured:
[1] = tested on: conscious AC5KO and WT mice; test: HR and arterial pressure in conscious mice (ECG, micromanometer catheter); assay type: in vivo, mouse; settings: for decrease in HR: Ach 0.01 μg/g i.v.; for increase in HR: atropine 1 μg/g i.v.
Text: In AC5KO and WT mice, four ECG wires (New England Electric Wire Corporation, Lisbon, N.H., USA) were placed subcutaneously, a silicone elastomer tubing (Cardiovascular Instrument Corp., Wakefield, Mass., USA) was inserted into the right external jugular vein and a 1.4 F micromanometer catheter (Millar Instruments, Inc., Houston, Tex., USA) was inserted into the lower abdominal aorta via the femoral artery as described previously with some modifications (Uechi, M., Asai, K., Osaka, M., Smith, A., Sato, N., Wagner, T. E., Ishikawa, Y., Hayakawa, H., Vatner, D. E., Shannon, R. P., et al. (1998), Circ. Res. 82:416-423). The ECG wires, the silicone elastomer tubing and the micromanometer catheter were tunneled subcutaneously to the back, externalized, and secured in a plastic cap. On the day of the study, each mouse was placed in the mouse holder, the jugular venous catheter was accessed and connected to a microliter syringe (Hamilton Co., Reno, Nev., USA), the 1.4 F micromanometer catheter was connected to a recorder (Dash 4u; Astro-Med, Inc., West Warwick, R.I., USA) and the ECG wires were connected to an ECG amplifier (Gould Inc., Cleveland, Ohio, USA). All experiments were recorded with animals in the conscious state. After at least 6 hours recovery from the implantation of the catheter, when a stable HR was achieved, the baseline ECG and arterial pressure (AP) were recorded for 5 min. Ach(0.05 μg/g) was then administered intravenously (i.v.), and the ECG and AP recording were repeated. A recovery period of 15 min was allowed for the HR and AP to return to baseline before administering the next drug. Baseline HR slowing was examined in response to phenylephrine (0.2 μg/g i.v.).

AC5KO and WT mice = test: Echocardiography in anesthetized mice during i.v. ISO infusion, with co-administered Ach; assay type: in vivo, mouse
Description: Adenylyl cyclase 5 knockout (AC5KO) mice (6.4±0.2 month old, n=6) and wild type (WT) mice (6.7±0.1 month old, n=6) of either sex from the same genetic background as the transgenic mice were used for the physiological studies. Measurements of LV ejection fraction (LVEF) were performed as described previously (Iwase, M., Uechi, M., Vatner, D. E., Asai, K., Shannon, R. P., Kudej, R. K., Wagner, T. E., Wight, D.C., Patrick, T. A., Ishikawa, Y., et al. (1997), Am. J. Physiol. 272:H585-589.). Briefly, after determination of body weight, mice were anesthetized with ketamine (0.065 mg/g), acepromazine (0.002 mg/g), and xylazine (0.013 mg/g) injected intraperitoneally and were allowed to breathe spontaneously. Echocardiography was performed using ultrasonography (Sequoia C256; Acuson Corporation, Mountain View, Calif., USA). A dynamically focused 15-MHz annular array transducer was applied from below, using a warmed saline bag as a standoff. M-mode echocardiographic measurements of the LV were performed at baseline and during intravenous infusion of ISO (0.005, 0.01, 0.02, and 0.04 μg/kg/min i.v. for 5 minutes each)(Abbott Laboratories Inc, North Chicago, Ill., USA) using an infusion pump (PHD 2000; Harvard Apparatus, Inc., Holliston, Mass., USA). The total amount of the infusion volume was <100 μL in each mouse. […]

[2] = tested on: WT, heterozygous and AC5KO mice; test: Rotor rod test before and after db-cAMP injection; assay type: in vivo, mouse; settings: for increase in time spent on the rod without falling: 30 minutes after db-cAMP injection; for rotor rod performance: 48 hours after injection
Description: The animals were tested for motor function 30 minutes after i. p. administration of 10 mg/kg of db-cAMP. The test was repeated after 48 hours of drug administration when the drug effect was completely eliminated. Similarly, intracranial injection of db-cAMP was conducted. Before drug injection, the mice were anesthetized with ketamine. Injections of db-cAMP into the mouse brain were performed at the following coordinates: for injection into the striatum: 1.70 mm anterior to the bregma, 1.1 mm to the right of the midline, and 4.1 mm deep. Three micro-liters of drug solution was loaded into an internal cannula needle (C315×33) with cannula tubing connected to a Hamilton syringe mounted onto a microinjection pump (Harvard Apparatus, Dover, Mass.). The drug solutions were delivered at a rate of 0.5 μl/min. Normal saline was injected in a sham control.
The rotor rod test is the most commonly used method to evaluate the motor function in rodents^106 but other methods are also available^107 to reinforce the findings of the rotor rod test. Such tests include rearing test, spontaneous movement study and pole test. The first test examines the frequency of vertical movements of mice and the second examines that of horizontal movements. Thus, spontaneous activity was determined both horizontally (locomotion) and vertically (rearings). The last test, the pole test, examines the degree of bradykinesia. In this test, mice were placed head upward on the top of a rough-surfaced pole. The time until they turned downward (Tturn) and the time until they climbed down to the floor were measured (TLA). Mice were placed in a cage and their movements were videotaped for analysis. Thus, spontaneous movements as an index of motor function were evaluated. Most important, these tests were used to evaluate the recovery of motor function upon cAMP administration and/or adenovirus-mediated gene transfer of AC5 in additional studies. The preliminary data were obtained from littermates of AC5KO, and WT males.
The inventors examined whether the locomotor activity of the AC5KO mouse was impaired compared to a normal mouse. At a glance, the AC5KO mice appeared normal, i.e., they were not catatonic or rigid. […] Inventors analyzed them with a rotor rod test in which mice were put on a rotor rod as shown below. In this task, animals had to make continuous adjustment in balance and posture to remain upright on a rod. The time that mice spent on the accelerating rotor-rod without falling was measured. The rod increased from 3 rpm to 30 rpm during each 5-min trial. […] At the 5th trial, there was a small, but significant decrease in their performance in heterozygous mice.

[3] = tested on: ISO-stimulated AC activity in heart membranes; test: AC assay in heart membrane preparations; assay type: biochemical, mouse; settings: carbachol 10 μM
Description: Hearts were dissected from the mice and membrane preparations were prepared as described previously (Ishikawa, Y., Sorota, S., Kiuchi, K., Shannon, R. P., Komamura, K., Katsushika, S., Vatner, D. E., Vatner, S. F., and Homcy, C. J. (1994), J. Clin. Invest. 93:2224-2229.). Protein concentration was measured by the method of Bradford using bovine serum albumin as a standard (Bradford, M. M. (1976). Anal. Biochem. 72:248-254.). AC activity was measured as described previously (Kawabe, J., Iwami, G., Ebina, T., Ohno, S., Katada, T., Ueda, Y., Homcy, C. J., and Ishikawa, Y. (1994), J. Biol. Chem. 269:16554-16558). AC activity was linear within the incubation time up to 30 min. In order to harvest hearts for tissue cAMP content measurements, mice were allowed to acclimate to the surroundings in the laboratory for an hour before sacrifice. Freshly isolated hearts were briefly immersed in liquid nitrogen. […] The concentration of cAMP was determined with an RIA kit (PerkinElmer Life Sciences, Boston, Mass., USA).
Inventors then examined cAMP production in membranes from the hearts of AC5KO and WT at 6 months of age (FIG. 5A). The steady state AC activity was determined as the maximal capacity of cAMP production in the presence of ISO (100 μM ISO+100 μM GTP), GTPγS (100 μM) or forskolin (100 μM). […]

[4] = tested on: primary cultured striatal neurons; test: cAMP accumulation in primary cultured striatal neurons; assay type: cell-based, mouse; settings: neuronal cells from WT mice; forskolin 50 micro M, dopamine 100 micro M (FIG. 9)
Description: Reaction with various agonists in the presence of a phosphodiesterase inhibitor proceed for 10 minutes and are stopped by the addition of ice-cold 2.5% perchloric acid, followed by sonication and centrifugation. Pellets are dissolved in 0.1 N NaOH for protein measurements and the supernatants are subject to cAMP assay by radioimmunoassay after neutralization. To examine whether AC5 plays a major role in regulating cAMP production, receptor-stimulated cAMP production and its effect in the striatum was measured. The rationale for this study is as follows. Changes in cAMP signal upon receptor stimulation can be easily determined by measuring AC activity in intact neuronal cells because the striatal membrane preparations present a few problems. Determination of basal, GTPγS— and forskolin-stimulated AC activity may be readily done while receptor-regulated AC activity, both stimulatory and inhibitory, is not easy in the striatum. This is, at least partially, due to less abundant receptor expression and the disruption of the receptor/G protein/AC coupling during the process of membrane homogenization of the striatum. Therefore, the effect of receptor stimulation and its sequential changes in AC activity and further downstream events including the process of phosphorylation/dephosphorylation may be best examined using cultured cells or even the whole body. […]

CC(=O)OCC[N+](C)(C)C [Ach, acetylcholine]
decrease in HR ([1]; conscious AC5KO): 7.5% | decrease in HR ([1]; conscious WT): 22%

CC(C)NCC(O)c1ccc(O)c(O)c1 (stereo not shown) [ISO]
cardiac responses on LVEF and fractional shortening (FS) (AC5KO and WT mice): attenuated

CCCC(=O)Nc1ncnc2c1ncn2[C@@H]1O[C@@H]2COP(=O)(O)O[C@H]2[C@H]1OC(=O)CCC [db-cAMP]
increase in time spent on the rod without falling ([2]; AC5KO): approximately two-fold | rotor rod performance ([2]; AC5KO): dropped to the basal level | increase in time spent on the rod without falling ([2]; WT): 30% | rotor rod performance ([2]; WT): remained similar | increase in time spent on the rod without falling ([2]; heterozygous): 25% | rotor rod performance ([2]; heterozygous): remained similar

C[N+](C)(C)CCOC(N)=O [Carbachol]
inhibition of ISO-stimulated AC activity ([3]; AC5KO heart membranes): did not inhibit | decrease of ISO-stimulated AC activity ([3]; WT heart membranes): 21±3.4%

NCCc1ccc(O)c(O)c1 [dopamine]
levels of cAMP compared to untreated cells [4]: effective at increasing the levels of cAMP significantly

CNC[C@H](O)c1cccc(O)c1 [Phenylephrine, phenylephrine]
baroreflex mediated slowing of HR ([1]; AC5KO compared with WT, phenylephrine 0.2 μg/g i.v.): less | systolic arterial pressure ([1]; both WT and AC5KO, phenylephrine 0.2 μg/g i.v.): increased systolic arterial pressure significantly

CN1[C@@H]2CC[C@H]1C[C@@H](OC(=O)C(CO)c1ccccc1)C2 (stereo partly shown) [atropine]
increase in HR ([1]; AC5KO): 19±7.5 beats/min | increase in HR ([1]; WT): 102±22.2 beats/min
